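Compound exposure: 48 hours, 5 concentrations, 96-well plates. At the GI50, growth is halved.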 Activity calls are given as the source filed them. No stated cut-off is given here; in the data, active = GI50 up to about 1.1 µM and inactive = higher.
Experiments:
Experiment in all cases: inhibition of tumour cell growth, NCI panel, 48 h
A498 = system: A498
ACHN = system: ACHN
CAKI-1 = system: CAKI-1
COLO 205 = system: COLO 205
EKVX = system: EKVX
HCT-15 = system: HCT-15
HL-60 = system: HL-60
IGROV-1 = system: IGROV-1
KM12 = system: KM12
MDA-MB-231 = system: MDA-MB-231
NCI-H23 = system: NCI-H23
NCI-H522 = system: NCI-H522
OVCAR-5 = system: OVCAR-5
SF-268 = system: SF-268
SF-295 = system: SF-295
T47D = system: T47D
TK-10 = system: TK-10
UACC-257 = system: UACC-257
NCI/ADR-RES = system: NCI/ADR-RES
RXF 393 = system: RXF 393

Measured: GI50

O=C1CC2c3ccccc3CCC2c2ccccc21 (stereo unspecified)
inactive: ACHN 28.2 µM | CAKI-1 33.2 µM | COLO 205 2.93 µM | EKVX 2.58 µM | HL-60 21.6 µM | IGROV-1 26.3 µM | KM12 9.35 µM | MDA-MB-231 20.5 µM | NCI-H23 20.2 µM | NCI-H522 23.3 µM | OVCAR-5 24.4 µM | SF-268 27.5 µM | SF-295 17.6 µM | T47D 42.9 µM | TK-10 35.2 µM | UACC-257 26.2 µM
14.1 µM: HCT-15
active: A498 1 µM

CCN(CC)CCC(=O)/C=C/c1ccccc1
inactive: A498 17.8 µM | ACHN 12.6 µM | CAKI-1 3.27 µM | COLO 205 7.11 µM | EKVX 13.9 µM | HL-60 2.55 µM | IGROV-1 17.5 µM | KM12 6.5 µM | MDA-MB-231 15.5 µM | NCI-H23 18.2 µM | NCI-H522 4.51 µM | NCI/ADR-RES 17.5 µM | OVCAR-5 17.5 µM | RXF 393 9.25 µM | SF-268 10.3 µM | SF-295 18.8 µM | TK-10 17.7 µM | UACC-257 16.2 µM
15.6 µM: HCT-15

N#Cc1nnc2ccccc2c1N
> 100 µM: HCT-15
inactive: ACHN > 100 µM | CAKI-1 > 100 µM | COLO 205 > 100 µM | EKVX > 100 µM | IGROV-1 > 100 µM | KM12 > 100 µM | MDA-MB-231 > 100 µM | NCI-H23 > 100 µM | NCI/ADR-RES > 100 µM | OVCAR-5 > 100 µM | SF-268 > 100 µM | T47D > 100 µM | TK-10 > 100 µM | UACC-257 > 100 µM

CCN1CC2=C(N=c3s/c(=C\c4ccc(Cl)cc4)c(=O)n3C2c2ccc(Cl)cc2)/C(=C/c2ccc(Cl)cc2)C1 (stereo unspecified)
inactive: A498 24.6 µM | ACHN 58.7 µM | CAKI-1 16.4 µM | COLO 205 > 100 µM | EKVX > 100 µM | HL-60 > 100 µM | IGROV-1 67.3 µM | KM12 > 100 µM | MDA-MB-231 25.6 µM | NCI-H23 63.1 µM | NCI-H522 > 100 µM | NCI/ADR-RES > 100 µM | OVCAR-5 > 100 µM | RXF 393 2.47 µM | SF-268 24.9 µM | SF-295 33 µM | TK-10 18.9 µM | UACC-257 > 100 µM
> 100 µM: HCT-15

COc1cc2c(cc1C)NC(=O)/C2=C\c1ccncc1
inactive: ACHN 6.05 µM | CAKI-1 3.57 µM | COLO 205 7.19 µM | EKVX 6.7 µM | HL-60 3.73 µM | IGROV-1 2.43 µM | KM12 3.48 µM | NCI-H23 3.43 µM | NCI-H522 2.94 µM | NCI/ADR-RES 3.58 µM | OVCAR-5 10.9 µM | RXF 393 3.76 µM | SF-268 3.83 µM | SF-295 4.99 µM | T47D 3.81 µM | TK-10 5.86 µM | UACC-257 5.19 µM
4.28 µM: HCT-15

C/C=C/[C@@]1(OC(=O)c2ccccc2)C[C@@H]2CCCC[C@@H]21
inactive: ACHN 17.7 µM | CAKI-1 17.6 µM | EKVX 16.7 µM | HL-60 14 µM | IGROV-1 17 µM | KM12 17.4 µM | MDA-MB-231 20.6 µM | NCI-H23 16.5 µM | NCI-H522 15.7 µM | NCI/ADR-RES 20.5 µM | OVCAR-5 17.1 µM | SF-268 17.1 µM | SF-295 18.6 µM | T47D 18.6 µM | TK-10 15 µM | UACC-257 18.3 µM
19.5 µM: HCT-15

N/N=C1\CCCc2c1no[n+]2[O-]
inactive: A498 > 100 µM | ACHN > 100 µM | CAKI-1 > 100 µM | COLO 205 > 100 µM | EKVX > 100 µM | HL-60 > 100 µM | IGROV-1 > 100 µM | KM12 > 100 µM | MDA-MB-231 > 100 µM | NCI-H23 > 100 µM | NCI-H522 > 100 µM | NCI/ADR-RES > 100 µM | OVCAR-5 > 100 µM | RXF 393 > 100 µM | SF-268 > 100 µM | SF-295 > 100 µM | TK-10 > 100 µM | UACC-257 > 100 µM
> 100 µM: HCT-15

COc1cc(C2SC(=N)Nc3c2c(C)nn3C(=O)Cc2ccccc2)cc(OC)c1OC (stereo unspecified)
> 100 µM: HCT-15
inactive: A498 > 100 µM | ACHN > 100 µM | CAKI-1 > 100 µM | COLO 205 > 100 µM | EKVX > 100 µM | HL-60 > 100 µM | IGROV-1 > 100 µM | KM12 > 100 µM | MDA-MB-231 > 100 µM | NCI-H23 > 100 µM | NCI-H522 > 100 µM | SF-268 > 100 µM | SF-295 > 100 µM | T47D > 100 µM | TK-10 > 100 µM | UACC-257 > 100 µM

O=C(OCCN=c1c2ccccc2ccc2ccccc12)c1ccc([N+](=O)[O-])cc1
> 100 µM: HCT-15
inactive: ACHN > 100 µM | CAKI-1 > 100 µM | COLO 205 > 100 µM | EKVX > 100 µM | HL-60 > 100 µM | IGROV-1 > 100 µM | KM12 > 100 µM | MDA-MB-231 > 100 µM | NCI-H23 > 100 µM | NCI/ADR-RES > 100 µM | OVCAR-5 > 100 µM | RXF 393 > 100 µM | SF-268 > 100 µM | SF-295 > 100 µM | T47D > 100 µM | TK-10 > 100 µM | UACC-257 > 100 µM

Cn1c2ccccc2c(=O)c2cccc(C(=O)NCC(=O)O)c21
> 100 µM: HCT-15
inactive: ACHN > 100 µM | COLO 205 > 100 µM | EKVX 36.8 µM | IGROV-1 85.1 µM | KM12 > 100 µM | MDA-MB-231 > 100 µM | NCI-H23 > 100 µM | NCI/ADR-RES 60.3 µM | OVCAR-5 > 100 µM | SF-268 > 100 µM | SF-295 > 100 µM | T47D > 100 µM | TK-10 > 100 µM | UACC-257 > 100 µM

Cn1cccc1-c1ccc(-c2ccc(CO)[se]2)[se]1
active: CAKI-1 0.188 µM | IGROV-1 0.582 µM
12.6 µM: HCT-15
inactive: A498 1.77 µM | ACHN 38.9 µM | COLO 205 11.4 µM | EKVX 61.1 µM | HL-60 7.35 µM | KM12 8.99 µM | MDA-MB-231 29.8 µM | NCI-H23 25.9 µM | NCI-H522 10.2 µM | NCI/ADR-RES 22.8 µM | OVCAR-5 53.5 µM | RXF 393 5.66 µM | SF-268 44.7 µM | SF-295 10.7 µM | TK-10 28.1 µM

CC[C@]12C=CCN3CCC4(c5cc(/N=N/c6ccccc6)c(OC)cc5N(C)[C@H]4[C@@](O)(C(=O)OC)[C@@H]1OC(C)=O)[C@@H]32 (stereo partly specified)
inactive: A498 16.6 µM | ACHN 16.1 µM | CAKI-1 24.2 µM | COLO 205 25.2 µM | EKVX 16.5 µM | HL-60 17.3 µM | IGROV-1 17.3 µM | KM12 18.7 µM | MDA-MB-231 16.2 µM | NCI-H23 15.3 µM | NCI-H522 16.1 µM | NCI/ADR-RES 20.4 µM | OVCAR-5 17 µM | RXF 393 15.2 µM | SF-268 18.2 µM | SF-295 15.6 µM | TK-10 17.6 µM | UACC-257 16.6 µM
17.3 µM: HCT-15

CC(=O)OCC1OC(n2c(C)c(/N=N/c3ccc(C)cc3)c(C)c(C#N)c2=S)C(OC(C)=O)C(OC(C)=O)C1OC(C)=O (stereo unspecified)
inactive: ACHN > 100 µM | CAKI-1 > 100 µM | COLO 205 > 100 µM | HL-60 > 100 µM | IGROV-1 > 100 µM | KM12 > 100 µM | MDA-MB-231 48.6 µM | NCI-H23 > 100 µM | NCI/ADR-RES > 100 µM | OVCAR-5 > 100 µM | RXF 393 > 100 µM | SF-268 > 100 µM | SF-295 90.6 µM | T47D > 100 µM | TK-10 > 100 µM | UACC-257 > 100 µM

Cc1ccccc1C(O)(c1nccn1C)c1nccn1C
> 100 µM: HCT-15
inactive: A498 > 100 µM | ACHN > 100 µM | CAKI-1 > 100 µM | COLO 205 > 100 µM | EKVX > 100 µM | HL-60 > 100 µM | IGROV-1 > 100 µM | KM12 > 100 µM | NCI-H522 > 100 µM | NCI/ADR-RES > 100 µM | OVCAR-5 > 100 µM | RXF 393 > 100 µM | SF-268 > 100 µM | SF-295 > 100 µM | T47D > 100 µM | TK-10 > 100 µM | UACC-257 > 100 µM

CC12CCC3[C@@H](CC3(C)C)C(O)(CCC1=O)C2 (stereo partly specified)
inactive: ACHN > 100 µM | CAKI-1 > 100 µM | COLO 205 > 100 µM | EKVX > 100 µM | HL-60 > 100 µM | IGROV-1 > 100 µM | KM12 > 100 µM | MDA-MB-231 > 100 µM | NCI-H23 > 100 µM | NCI/ADR-RES > 100 µM | OVCAR-5 > 100 µM | SF-268 > 100 µM | SF-295 > 100 µM | T47D > 100 µM | TK-10 > 100 µM | UACC-257 > 100 µM
> 100 µM: HCT-15

N#CC(CCN1CCC(Nc2ccccc2)(c2nnnn2C2CCCCC2)CC1)(c1ccccc1)c1ccccc1
> 100 µM: HCT-15
inactive: A498 > 100 µM | ACHN > 100 µM | COLO 205 > 100 µM | EKVX > 100 µM | HL-60 > 100 µM | IGROV-1 > 100 µM | KM12 > 100 µM | MDA-MB-231 > 100 µM | NCI-H23 > 100 µM | NCI-H522 > 100 µM | NCI/ADR-RES > 100 µM | OVCAR-5 > 100 µM | RXF 393 > 100 µM | SF-268 > 100 µM | SF-295 > 100 µM | TK-10 > 100 µM | UACC-257 > 100 µM
